In brackets after ≈: the same amount, converted by molar mass. Read-outs that look alike come from different tables or passages of the source.
Legend:
[1] = Solubility in gastric juice or intestinal juice model fluid (precipitation method using DMSO); assay type: physicochemical; conditions: room temperature
Description: Solubility in Gastric Juice or Intestinal Juice Model Fluid
Measurement was performed by a precipitation method using DMSO. Specifically, each of the dimethyl sulfoxide (DMSO) solutions of the compounds was individually added to 1st fluid for Disintegration Test of Japanese Pharmacopoeia (pH: 1.2) or 2nd fluid for Disintegration Test of Japanese Pharmacopoeia (pH: 6.8), and the mixtures were stirred by shaking at room temperature for 24 hours. Subsequently, insoluble substances in each mixture were removed by filtration, and the UV absorption of each filtrate was measured. The obtained values were individually applied to the calibration curves of the compounds prepared in advance to calculate the concentrations of the compounds dissolved (μg/mL).

[2] = pH 1.2, simulated gastric fluid, kinetic from dmso stock, 1st fluid for Disintegration Test of Japanese Pharmacopoeia (pH: 1.2), read-out: Solubility (μg/mL) 1st fluid
[3] = pH 6.8, kinetic from dmso stock, 2nd fluid for Disintegration Test of Japanese Pharmacopoeia (pH: 6.8), read-out: Solubility (μg/mL) 2nd fluid
[4] = 2nd fluid for Disintegration Test of Japanese Pharmacopoeia (pH: 6.8), 24 hours

Row | solubility at 24 h [1, 2] [µg/mL] | solubility at 24 h [1, 3] [µg/mL] | melting point | Compound | further results
1 | > 88 | 25.1 (≈ 57.1 µM) |  | COc1cc(-c2cnc(C3CC(F)(F)C3)[nH]2)ccc1OCc1ccc(C(F)(F)F)nc1 [Example 2] | 
2 | 90.1 (≈ 193 µM) | 1.1 (≈ 2.35 µM) |  | COc1cc(-c2cnc(C3CCCC(F)(F)C3)[nH]2)ccc1OCc1ccc(C(F)(F)F)cn1 (stereo not shown) [Example 5] | 
3 | 87.7 (≈ 200 µM) | 1.8 (≈ 4.1 µM) |  | COc1cc(OCc2ccc(C(F)(F)F)cn2)ccc1-c1cnc(C2CC(F)(F)C2)[nH]1 [Example 9] | 
4 | 89.5 (≈ 197 µM) | 17.3 (≈ 38.2 µM) |  | COc1cc(-c2cnc(C3CCC(F)(F)C3)[nH]2)ccc1OCc1ccc(C(F)(F)F)cn1 (stereo not shown) [Example 10] | 
5 | 80.1 (≈ 182 µM) | 5.4 (≈ 12.3 µM) |  | COc1cc(-c2cnc(C3CC(F)(F)C3)[nH]2)ccc1OCc1ccc(C(F)(F)F)cn1 [Example 11] | 
6 |  |  | 209 to 211 °C | COc1cc(-c2nc(-c3ccc(Cl)nc3)[nH]c2C)ccc1OCc1ccc(C(F)(F)F)nc1 [Example 28] | 
7 |  |  | 233 to 237 °C (dec.) | COc1cc(OCc2ccc(C#N)cn2)ccc1-c1c[nH]c(-c2ccc(Cl)nc2)n1 [Example 35] | 
8 |  |  | 210 to 213 °C (dec.) | COc1cc(OCc2cnccn2)ccc1-c1c[nH]c(-c2ccc(Cl)nc2)n1 [Example 50] | 
9 | 90.2 (≈ 209 µM) | 9 (≈ 20.9 µM) |  | COc1cc(-c2c[nH]c(C3CCCCC3)n2)ccc1OCc1ccc(C(F)(F)F)nc1 [Example 51] | 
10 |  |  | 179 to 181 °C | COc1cc(-c2c[nH]c(-c3ccc(Cl)nc3)n2)ccc1OCc1ccc(C(F)(F)F)nc1 [Example 52] | 
11 |  |  | 218 to 220 °C | COc1cc(OCc2ccc(C(F)(F)F)nc2)ccc1-c1c[nH]c(-c2ccc(Cl)nc2)n1 [Example 54] | 
12 |  |  | 159 to 160 °C | COc1cc(OCc2ccc(C(F)(F)F)cn2)ccc1-c1c[nH]c(-c2ccc(SC(C)(C)C)cn2)n1 [Example 59] | 
13 |  |  | 217 to 218 °C (dec.) | COc1ccc(-c2nc(-c3ccc(OCc4ccc(C(F)(F)F)cn4)c(OC)c3)c[nH]2)cn1 [Example 70] | 
14 |  |  | 181 to 184 °C | CCOc1ccc(-c2nc(-c3ccc(OCc4ccc(Br)cc4F)cc3OC)c[nH]2)cn1 [Example 84] | 
15 |  |  | 219 to 222 °C | COc1cc(OCc2ccc(Br)cc2F)ccc1-c1c[nH]c(-c2ccccn2)n1 [Example 90] | 
16 |  |  | 220 to 222 °C | COc1cc(OCc2ccc(Br)cc2F)ccc1-c1c[nH]c(-c2ccc(Cl)nc2)n1 [Example 92] | 
17 |  |  | 175 to 177 °C | COc1cc(-c2c[nH]c(-c3ccc(C(F)(F)F)nc3)n2)ccc1OCc1ccc(Br)cc1F [Example 95] | 
18 |  |  | 209 to 211 °C | COc1cc(OCc2ccc(C(F)(F)F)cn2)ccc1-c1c[nH]c(-c2ccc(C(F)(F)F)nc2)n1 [Example 96] | 
19 |  |  | 183 to 185 °C | COc1cc(OCc2ccc(Br)cc2F)ccc1-c1c[nH]c(-c2ccc(C(F)(F)F)nc2)n1 [Example 99] | 
20 |  |  | 213 to 218 °C | COc1cc(OCc2ccc(F)cc2F)ccc1-c1cnc(-c2ccc(Cl)nc2)[nH]1 [Example 101] | 
21 | > 57 | > 57 |  | COc1cc(-c2cnc(-c3ccc(F)nc3)[nH]2)ccc1O [Example 110, 4-[2-(6-fluoropyridin-3-yl)-1H-imidazol-5-yl]-2-methoxyphenol] | 
22 | 21.1 (≈ 47.5 µM) | 0.5 (≈ 1.13 µM) |  | COc1cc(OCc2cccc(C(F)(F)F)n2)ccc1-c1cnc(-c2ccc(F)nc2)[nH]1 [Example 113] | 
23 | 23.1 (≈ 52 µM) | 0.5 (≈ 1.13 µM) |  | COc1cc(-c2c[nH]c(-c3ccc(F)nc3)n2)ccc1OCc1ccc(C(F)(F)F)cn1 [Example 125] | 
24 | 17.1 (≈ 37.3 µM) | < 0.3 |  | COc1cc(OC(C)c2cccc(C(F)(F)F)n2)ccc1-c1cnc(-c2ccc(F)nc2)[nH]1 (stereo not shown) [Example 127] | 

Row | solubility at 24 h [1, 2] [µg/mL] | solubility at 24 h [1, 3] [µg/mL] | melting point | Compound | further results
25 | 13.6 (≈ 28.5 µM) | < 0.3 |  | COc1cc(OC(C)c2ncc(C(F)(F)F)cc2F)ccc1-c1cnc(-c2ccc(F)nc2)[nH]1 (stereo not shown) [Example 129] | 
26 |  |  | 72 to 105 °C | COc1cc(OC(C)c2ccc(C(F)(F)F)nc2)ccc1-c1cnc(-c2ccc(F)nc2)[nH]1 (stereo not shown) [Example 130] | 
27 |  |  | 178 to 180 °C | COc1cc(OCc2ccc(Cl)cc2F)ccc1-c1cnc(-c2ccc(F)nc2)[nH]1 [Example 143] | 
28 |  |  | 177 to 180 °C | COc1cc(OCc2ccc(Br)cc2F)ccc1-c1cnc(-c2ccc(F)nc2)[nH]1 [Example 144] | 
29 | < 0.3 | 4 (≈ 8.74 µM) |  | COc1cc(O[C@@H](C)c2ccc(C(F)(F)F)cc2)ccc1-c1cnc(-c2ccc(F)nc2)[nH]1 [Example 145] | 
30 | 9.9 (≈ 21.6 µM) |  |  | COc1cc(O[C@H](C)c2ccc(C(F)(F)F)nc2)ccc1-c1cnc(-c2ccc(F)nc2)[nH]1 [Example 146] | Solubility (μg/mL) 2nd fluid [1, 4]: 1.2 µg/mL (≈ 2.62 µM)
31 | 12.4 (≈ 27 µM) | 3.6 (≈ 7.85 µM) |  | COc1cc(O[C@@H](C)c2ccc(C(F)(F)F)nc2)ccc1-c1cnc(-c2ccc(F)nc2)[nH]1 [Example 147] | 
32 | < 0.3 | 5.3 (≈ 11.6 µM) |  | COc1cc(O[C@H](C)c2ccc(C(F)(F)F)cc2)ccc1-c1cnc(-c2ccc(F)nc2)[nH]1 [Example 148] | 
33 |  |  |  | COc1cc(O[C@H](C)c2ccc(C(F)(F)F)nc2)ccc1-c1cnc(-c2ccc(F)nc2)[nH]1 [Example 149] | Solubility (μg/mL) 1st fluid ([1]; 1st fluid for Disintegration Test of Japanese Pharmacopoeia (pH: 1.2), 24 hours): 19.6 µg/mL (≈ 42.8 µM); Solubility (μg/mL) 2nd fluid [1, 4]: 3.9 µg/mL (≈ 8.51 µM)
34 |  |  | 185 to 187 °C | COc1cc(OCc2cc(C(F)(F)F)ccn2)ccc1-c1[nH]c(-c2ccc(F)nc2)nc1Cl [Example 173] | 
35 |  |  | 176 to 178 °C | COc1cc(OCc2cc(C(F)(F)F)ccn2)ccc1-c1[nH]c(-c2ccc(Cl)nc2)nc1Cl [Example 174] | 
36 |  |  | 202 to 204 °C | COc1cc(-c2[nH]c(-c3ccc(F)nc3)nc2Cl)ccc1OCc1ccc(C(F)(F)F)nc1 [Example 177] | 
37 | 23.2 (≈ 50.6 µM) | < 0.3 |  | COc1cc(OCc2cccc(C#N)n2)ccc1-c1[nH]c(C2CCC(F)(F)CC2)nc1Cl [Example 186] | 
38 |  |  | 232 to 234 °C | COc1cc(OCc2cnc(Cl)cn2)ccc1-c1nc(-c2ccc(Cl)nc2)[nH]c1Cl [Example 215] | 
39 |  |  | 231 to 233 °C (dec.) | COc1cc(OCc2cnc(Cl)cn2)ccc1-c1nc(-c2ccc(F)nc2)[nH]c1Cl [Example 217] | 
40 |  |  | 222 to 224 °C (dec.) | COc1cc(OCc2ccc(C(F)(F)F)cn2)ccc1-c1nc(-c2ccc(F)cn2)[nH]c1Cl [Example 231] | 
41 |  |  | 197 to 199 °C (dec.) | COc1cc(OCc2ccc(C(F)(F)F)cn2)ccc1-c1nc(-c2ccc(Cl)cn2)[nH]c1Cl [Example 232] | 
42 |  |  | 195 to 199 °C | COc1cc(OCc2cccnc2C(F)(F)F)ccc1-c1[nH]c(-c2ccc(Cl)nc2)nc1Cl [Example 243] | 
43 |  |  | 173 to 177 °C | COc1cc(OCc2ccc(F)cc2F)ccc1-c1[nH]c(-c2ccc(Cl)nc2)nc1Cl [Example 244] | 
44 |  |  | 174 to 179 °C | COc1cc(OCc2ncc(Br)cc2F)ccc1-c1[nH]c(-c2ccc(Cl)nc2)nc1Br [Example 250] | 
45 |  |  | 189 to 191 °C | COc1cc(OCc2ncc(Br)cc2F)ccc1-c1[nH]c(-c2ccc(Cl)nc2)nc1Cl [Example 251] | 
46 |  |  | 133 to 153 °C | COc1cc(OCc2cnccc2C(F)(F)F)ccc1-c1[nH]c(-c2ccc(F)nc2)nc1Cl [Example 257] | 
47 |  |  | 179 to 181 °C | COc1cc(OCc2cc(C(F)(F)F)ccn2)ccc1-c1[nH]c(-c2ccc(F)nc2)nc1Br [Example 269] | 
